Data set [1] addresses T1, Peroxisome proliferator-activated receptor delta (Homo sapiens) (UniProt Q03181).
T1 sequence (whole entry): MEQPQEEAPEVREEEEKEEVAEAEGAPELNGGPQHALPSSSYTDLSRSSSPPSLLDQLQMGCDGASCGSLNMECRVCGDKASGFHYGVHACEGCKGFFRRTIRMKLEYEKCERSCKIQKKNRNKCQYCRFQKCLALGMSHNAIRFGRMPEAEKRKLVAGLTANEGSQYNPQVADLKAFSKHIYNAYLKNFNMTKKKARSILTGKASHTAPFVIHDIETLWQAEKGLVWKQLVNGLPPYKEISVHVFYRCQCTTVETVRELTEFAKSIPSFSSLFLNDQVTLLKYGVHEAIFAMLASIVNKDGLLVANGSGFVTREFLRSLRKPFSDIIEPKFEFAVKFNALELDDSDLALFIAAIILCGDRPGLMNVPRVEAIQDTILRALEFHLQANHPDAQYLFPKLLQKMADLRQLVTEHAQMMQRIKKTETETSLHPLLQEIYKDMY
Kind of data set: Agonist activity at PPARdelta (unknown origin) assessed as maximal activation at 10 nM relative to control. The note with it: filed as agonist.

Data set [2] has as its target T2, Peroxisome proliferator-activated receptor gamma (Homo sapiens) (UniProt P37231).
T2 sequence (whole entry): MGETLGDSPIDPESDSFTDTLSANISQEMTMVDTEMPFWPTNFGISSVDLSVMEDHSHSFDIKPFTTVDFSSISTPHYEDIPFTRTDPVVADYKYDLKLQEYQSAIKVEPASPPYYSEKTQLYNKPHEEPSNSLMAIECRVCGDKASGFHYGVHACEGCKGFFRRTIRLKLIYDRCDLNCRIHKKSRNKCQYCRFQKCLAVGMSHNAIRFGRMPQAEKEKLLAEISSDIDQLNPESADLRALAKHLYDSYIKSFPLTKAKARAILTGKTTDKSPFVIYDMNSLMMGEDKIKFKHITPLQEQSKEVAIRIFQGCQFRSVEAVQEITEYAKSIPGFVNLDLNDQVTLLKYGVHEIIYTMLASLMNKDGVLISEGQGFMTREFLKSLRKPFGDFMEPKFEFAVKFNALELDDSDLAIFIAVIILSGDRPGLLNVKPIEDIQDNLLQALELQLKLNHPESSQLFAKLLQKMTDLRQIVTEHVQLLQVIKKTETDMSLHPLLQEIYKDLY
Kind of data set: Agonist activity at PPARgamma (unknown origin) assessed as maximal activation at 10 nM relative to control. To be noted: filed as agonist.

Data set [3] addresses T3, Peroxisome proliferator-activated receptor alpha (Homo sapiens, UniProt Q07869).
T3 sequence (Q07869 whole entry): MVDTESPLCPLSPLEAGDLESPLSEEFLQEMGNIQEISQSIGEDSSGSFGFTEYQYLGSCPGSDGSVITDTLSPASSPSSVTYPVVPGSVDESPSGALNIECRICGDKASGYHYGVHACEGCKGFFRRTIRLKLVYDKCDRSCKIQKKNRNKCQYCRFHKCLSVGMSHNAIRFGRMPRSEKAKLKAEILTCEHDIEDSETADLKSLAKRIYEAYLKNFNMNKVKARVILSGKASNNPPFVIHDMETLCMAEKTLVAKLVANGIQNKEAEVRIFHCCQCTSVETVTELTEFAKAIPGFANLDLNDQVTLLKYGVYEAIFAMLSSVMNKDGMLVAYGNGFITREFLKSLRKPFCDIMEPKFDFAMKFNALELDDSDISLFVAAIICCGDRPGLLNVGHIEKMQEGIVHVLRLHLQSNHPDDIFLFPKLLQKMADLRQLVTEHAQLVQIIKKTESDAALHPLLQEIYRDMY
Put plainly: Agonist activity at PPARalpha (unknown origin).

Data set [4] addresses T4, Peroxisome proliferator-activated receptor gamma (Homo sapiens, UniProt P37231).
T4 sequence (P37231 whole entry): T2 sequence (whole entry)
Put plainly: Agonist activity at PPARgamma (unknown origin).

Data set [5] concerns the target T5, Peroxisome proliferator-activated receptor alpha (Homo sapiens) (UniProt Q07869).
T5 sequence (whole entry): T3 sequence (Q07869 whole entry)
Put plainly: Agonist activity at PPARalpha (unknown origin) assessed as maximal activation at 10 nM relative to control. To be noted: filed as agonist.

The target of data set [6] is T6, Peroxisome proliferator-activated receptor delta (Homo sapiens, UniProt Q03181).
T6 sequence (Q03181 whole entry): T1 sequence (whole entry)
Put plainly: Agonist activity at PPARdelta (unknown origin).

Data set [7] is described as follows: Microsomal stability in human liver microsomes assessed as terminal elimination half life at 1 uM measured upto 60 mins by LC-MS/MS-11 analysis. The class given is ADME, Microsome. (Microsomes from liver hold many membrane-bound enzymes, among them those of drug oxidation.)
Data set [8] can be described thus: Intrinsic clearance in human liver microsomes at 1 uM measured upto 60 mins by LC-MS/MS-11 analysis. The format is ADME, Microsome. The note with it: read-out: CLH.

In the case of `Cc1cc(Cc2cc(-c3ccc(Br)cc3)on2)cc(C)c1OC(C)(C)C(=O)O`, the Emax in data set [1] came to 75%; in data set [2], 118%; in data set [5], 135%. Moreover, the EC50 – broadly, the concentration at which the effect is half-maximal – turned out to be 65.1 nM in data set [3], 2750 nM in data set [4] and 24.2 nM in data set [6].
For the compound `CSc1ccc(C(=O)/C=C/c2cc(C)c(OC(C)(C)C(=O)O)c(C)c2)cc1` [ELAFIBRANOR], in data set [7], the half-life (usually the time in which the quantity being followed falls by half) at 1 µM is above 2 h. The Emax was 52% in data set [1], 115% in data set [2] and 82% in data set [5]. Besides, the CLint scaled at 1 µM in data set [8] was 116 mL/min/kg.

Values taken from ChEMBL document CHEMBL5042526, “Design, Synthesis, and Biological Evaluation of Triazolone Derivatives as Potent PPARα/δ Dual Agonists for the Treatment of Nonalcoholic Steatohepatitis” (J Med Chem, 2022).
